Target: T1, P2X7 receptor (Homo sapiens, UniProt Q99572)
T1 construct: stably expressing the full length P2X7 receptor; expressed in transfected cells
T1 sequence (Q99572 1-595): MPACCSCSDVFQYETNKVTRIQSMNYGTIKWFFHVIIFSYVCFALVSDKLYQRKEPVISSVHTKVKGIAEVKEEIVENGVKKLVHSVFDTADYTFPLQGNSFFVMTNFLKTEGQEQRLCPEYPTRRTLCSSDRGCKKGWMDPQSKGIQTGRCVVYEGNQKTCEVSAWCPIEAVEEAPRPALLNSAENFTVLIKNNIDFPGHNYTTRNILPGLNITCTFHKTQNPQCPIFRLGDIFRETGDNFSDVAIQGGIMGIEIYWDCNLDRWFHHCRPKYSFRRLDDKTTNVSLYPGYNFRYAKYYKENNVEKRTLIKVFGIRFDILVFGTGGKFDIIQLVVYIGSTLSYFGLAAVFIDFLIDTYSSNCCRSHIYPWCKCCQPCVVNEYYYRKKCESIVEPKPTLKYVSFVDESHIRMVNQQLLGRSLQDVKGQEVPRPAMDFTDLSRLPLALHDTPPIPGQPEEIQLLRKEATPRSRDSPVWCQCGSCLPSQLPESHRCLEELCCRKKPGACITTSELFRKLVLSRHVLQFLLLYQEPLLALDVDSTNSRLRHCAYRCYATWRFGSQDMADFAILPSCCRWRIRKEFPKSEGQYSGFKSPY
Test: Ca++ flux assay (FLIPR) in P2X7-HEK-293 cell line stably expressing the full length P2X7 receptor, Bz-ATP activation
Type: cell-based
Details: P2X7-HEK-293 cells; agonist Bz-ATP; fluorescence as total area over 90 seconds; read-out: P2X7 Ca Flux hu IC50
Method: The ability of Triazolopyrazinone Compounds to inhibit P2X7 function can be determined in Ca^++ flux assay using a P2X7-HEK-293 cell line stably expressing the full length P2X7 receptor. The assay protocol is as described in Cheewatrakoolpong et al., Biochem. Biophys. Res. Commun. 332:17-27 (2005) with minor modification, and is as summarized hereinafter. Briefly, cells were plated in poly-D-lysine-coated wells, and incubated at 37° C. for 24 hours. Cells were then incubated for 1 hour with a loading buffer which contains a dye sensitive to changes in Ca^++ concentration (lx Calcium Plus no wash dye from Molecular Devices, Sunnyvale, Calif.). The test compounds were added to the wells in the dye loading step. Plates containing the wells were transferred to a Fluorometric Imaging Plate Reader (Molecular Devices, Sunnyvale, Calif.). The cells were activated by the addition of the P2X7 receptor agonist 2′(3) —O-(4-benzoylbenzoyl)adenosine 5′-triphosphate (Bz-ATP from Sigma-Aldrich, St. Louis, Mo.), and the fluorescence was monitored for 90 seconds. The fluorescent signal was determined as the total area over the 90 second run time. Using this protocol, representative Triazolopyrazinone Compounds, compounds 1471 were tested. Tables 3 to 6 show the concentration at which 50% of the maximum response in the Ca^++ was inhibited (IC50) for each of the test compounds.

Row | SMILES | IC50 [nM]
1 | COC(=O)c1ccccc1CSc1nnc2c(=O)n(-c3cccc(Cl)c3C)ccn12 [Compound 90, methyl 2-((7-(3-chloro-2-methylphenyl)-8-oxo-7,8-dihydro-[1,2,4]triazolo[4,3-a]pyrazin-3-ylthio)methyl)benzoate] | 643
2 | O=c1c2nnc(SCc3ccccc3)n2ccn1-c1cccc(Cl)c1Cl [Compound 95, 3-(benzylthio)-7-(2,3-dichlorophenyl)-[1,2,4]triazolo[4,3-a]pyrazin-8(7H)-one] | 110
3 | Cc1c(-n2ccn3c(SCc4ccccc4C(C)(C)C)nnc3c2=O)cccc1C(F)(F)F [Compound 18, 3-(2-tert-butylbenzylthio)-7-(2-methyl-3-(trifluoromethyl)phenyl)-[1,2,4]triazolo[4,3-a]pyrazin-8(7H)-one] | 56.9
4 | Cc1c(Cl)cccc1-n1ccn2c(SCc3c(F)c(F)c(F)c(F)c3F)nnc2c1=O [Compound 106, 7-(3-chloro-2-methylphenyl)-3-(perfluorobenzylthio)-[1,2,4]triazolo[4,3-a]pyrazin-8(7H)-one] | 387
5 | Cc1c(-n2ccn3c(S(=O)(=O)Cc4cscc4Br)nnc3c2=O)cccc1C(F)(F)F [Compound 147, 3-((4-bromothiophen-3-yl)methylsulfonyl)-7-(2-methyl-3-(trifluoromethyl)phenyl)-[1,2,4]triazolo[4,3-a]pyrazin-8(7H)-one] | 45.8
6 | Cc1cccc(-c2ccccc2CS(=O)(=O)c2nnc3c(=O)n(-c4cccc(C(F)(F)F)c4C)ccn23)c1 [Compound 137] | 30.4
7 | Cc1c(Cl)cccc1-n1ccn2c(S(=O)(=O)Cc3ccccc3C(C)(C)C)nnc2c1=O [Compound 136, 3-(2-tert-butylbenzylsulfonyl)-7-(3-chloro-2-methylphenyl)-[1,2,4]triazolo[4,3-a]pyrazin-8(7H)-one] | 26.9
8 | Cc1c(-n2ccn3c(SCc4nc5ccccc5n4C)nnc3c2=O)cccc1C(F)(F)F [Compound 3, 3-((1-methyl-1H-benzo[d]imidazol-2-yl)methylthio)-7-(2-methyl-3-(trifluoromethyl)phenyl)-[1,2,4]triazolo[4,3-a]pyrazin-8(7H)-one] | 5670
9 | Cc1c(-n2ccn3c(S(=O)(=O)Cc4ccccc4Oc4ccccc4)nnc3c2=O)cccc1C(F)(F)F [Compound 153, 7-(2-methyl-3-(trifluoromethyl)phenyl)-3-(2-phenoxybenzylsulfonyl)-[1,2,4]triazolo[4,3-a]pyrazin-8(7H)-one] | 51.5
10 | Cc1c(-n2ccn3c(SCc4cccc(F)c4Cl)nnc3c2=O)cccc1C(F)(F)F [Compound 13, 3-(2-chloro-3-fluorobenzylthio)-7-(2-methyl-3-(trifluoromethyl)phenyl)-[1,2,4]triazolo[4,3-a]pyrazin-8(7H)-one] | 130
11 | Cc1c(Cl)cccc1-n1ccn2c(SCc3cc(F)cc(F)c3)nnc2c1=O [Compound 114, 7-(3-chloro-2-methylphenyl)-3-(3,5-difluorobenzylthio)-[1,2,4]triazolo[4,3-a]pyrazin-8(7H)-one] | 697
12 | Cc1c(Cl)cccc1-n1ccn2c(S(=O)(=O)Cc3ccccc3Cl)nnc2c1=O [Compound 134, 7-(3-chloro-2-methylphenyl)-3-(2-chlorobenzylsulfonyl)-[1,2,4]triazolo[4,3-a]pyrazin-8(7H)-one] | 23.2
13 | Cc1c(-n2ccn3c(S(=O)(=O)Cc4ccccc4-c4cccs4)nnc3c2=O)cccc1C(F)(F)F [Compound 143, 7-(2-methyl-3-(trifluoromethyl)phenyl)-3-(2-(thiophen-2-yl)benzylsulfonyl)-[1,2,4]triazolo[4,3-a]pyrazin-8(7H)-one] | 46.2
14 | Cc1c(-n2ccn3c(SCc4ccccc4I)nnc3c2=O)cccc1C(F)(F)F [Compound 11] | 106
15 | [2H]c1c([2H])c([2H])c(CSc2nnc3c(=O)n(-c4cccc(C(F)(F)F)c4C)ccn23)c([2H])c1[2H] [Compound 21, deuterated-7-[2-methyl-3-(trifluoromethyl)phenyl]-3-[(phenyl-(d5)-methy)thio]-1,2,4-triazolo[4,3-a]pyrazin-8(7H)-one] | 84.9
16 | Cc1c(-n2ccn3c(SCc4ccccc4OC(F)(F)F)nnc3c2=O)cccc1C(F)(F)F [Compound 51, 7-(2-methyl-3-(trifluorornethyl)phenyl)-3-(2-(trifluoromethoxy)benzylthio)-[1,2,4]triazolo[4,3-a]pyrazin-8(7H)-one] | 44.2
17 | Cc1c(-n2ccn3c(SCc4ccccc4Br)nnc3c2=O)cccc1C(F)(F)F [Compound 12, 3-(2-bromobenzylthio)-7-(2-methyl-3-(trifluoromethyl)phenyl)-[1,2,4]triazolo[4,3-a]pyrazin-8(7H)-one] | 107
18 | Cc1c(-n2ccn3c(S(=O)(=O)Cc4ccccc4Br)nnc3c2=O)cccc1C(F)(F)F [Compound 131, 3-(2-bromobenzylsulfonyl)-7-(2-methyl-3-(trifluoromethyl)phenyl)-[1,2,4]triazolo[4,3-a]pyrazin-8(7H)-one] | 17.7
19 | Cc1c(Cl)cccc1-n1ccn2c(N(Cc3ccccc3)Cc3ccccc3)nnc2c1=O [Compound 170, 7-(3-chloro-2-methylphenyl)-3-(dibenzylamino)-[1,2,4]triazolo[4,3-a]pyrazin-8(7H)-one] | 106
20 | Cc1c(Cl)cccc1-n1ccn2c(SCc3cccc(Cl)c3F)nnc2c1=O [Compound 63, 3-(3-chloro-2-fluorobenzylthio)-7-(3-chloro-2-methylphenyl)-[1,2,4]triazolo[4,3-a]pyrazin-8(7H)-one] | 2540
21 | Cc1c(-n2ccn3c(SCc4ccccc4)nnc3c2=O)cccc1C(F)(F)F [Compound 93, 3-(benzylthio)-7-(2-methyl-3-(trifluoromethyl)phenyl)-[1,2,4]triazolo[4,3-a]pyrazin-8(7H)-one] | 38.2
22 | Cc1c(Cl)cccc1-n1ccn2c(SCc3ccccc3OC(F)(F)F)nnc2c1=O [Compound 70, 7-(3-chloro-2-methylphenyl)-3-(2-(trifluoromethoxy)benzylthio)-[1,2,4]triazolo[4,3-a]pyrazin-8(7H)-one] | 112
23 | Cc1cccc(CSc2nnc3c(=O)n(-c4cccc(Cl)c4C)ccn23)c1 [Compound 73, 7-(3-chloro-2-methylphenyl)-3-(3-methylbenzylthio)-[1,2,4]triazolo[4,3-a]pyrazin-8(7H)-one] | 439
24 | [2H]c1c([2H])c([2H])c(CS(=O)(=O)c2nnc3c(=O)n(-c4cccc(Cl)c4C)ccn23)c([2H])c1[2H] [Compound 142, deuterated-7-(3-chloro-2-methylphenyl)-3-[(phenyl-(d5)methyl)sulfonyl]-1,2,4-triazolo[4,3-a]pyrazin-8(7H)-one] | 39.5
25 | Cc1c(Cl)cccc1-n1ccn2c(SCc3ccc4ccccc4c3)nnc2c1=O [Compound 97, 7-(3-chloro-2-methylphenyl)-3-(naphthalen-2-ylmethylthio)-[1,2,4]triazolo[4,3-a]pyrazin-8(7H)-one] | 2310
26 | O=c1c2nnc(SCc3ccccc3-c3ccccc3)n2ccn1-c1cccc(C(F)(F)F)c1Cl [Compound 48, 3-(biphenyl-2-ylmethylthio)-7-(2-chloro-3-(trifluoromethyl)phenyl)-[1,2,4]triazolo[4,3-a]pyrazin-8(7H)-one] | 17.3
27 | O=c1c2nnc(SCc3ccccc3)n2ccn1-c1cccc(C(F)(F)F)c1Cl [Compound 61, 3-(benzylthio)-7-(2-chloro-3-(trifluoromethyl)phenyl)-[1,2,4]triazolo[4,3-a]pyrazin-8(7H)-one] | 44.9
28 | Cc1c(-n2ccn3c(S(=O)(=O)Cc4cccc(F)c4Cl)nnc3c2=O)cccc1C(F)(F)F [Compound 124, 3-(2-chloro-3-fluorobenzylsulfonyl)-7-(2-methyl-3-(trifluoromethyl)phenyl)-[1,2,4]triazolo[4,3-a]pyrazin-8(7H)-one] | 14.6
29 | Cc1ccc(-c2ccccc2CSc2nnc3c(=O)n(-c4cccc(C(F)(F)F)c4C)ccn23)cc1 [Compound 7, 7-(2-methyl-3-(trifluoromethyl)phenyl)-3-((4′-methylbiphenyl-2-yl)methylthio)-[1,2,4]triazolo[4,3-a]pyrazin-8(7H)-one] | 66.7
30 | Cc1c(Cl)cccc1-n1ccn2c(S(=O)(=O)Cc3ccccc3N3CCOCC3)nnc2c1=O [Compound 158, 7-(3-chloro-2-methylphenyl)-3-(2-morpholinobenzylsulfonyl)-[1,2,4]triazolo[4,3-a]pyrazin-8(7H)-one] | 189

— patent US20130196986A1 (priority 2010, published 2013)
